Data reported in publication PMC9866541, “Flavonoid Derivatives as New Potent Inhibitors of Cysteine Proteases: An Important Step toward the Design of New Compounds for the Treatment of Leishmaniasis” (Microorganisms, 2023).
Where two headings read alike, the source gives them in different places.

Legend:
[1] = molecular target: T1, rCPB2.8 (Leishmania mexicana, UniProt P36400); assay: Screening of inhibitory activity on rCPB2.8 (Z-FR-MCA hydrolysis); format: biochemical; conditions: for inhibition at 1 µM / inhibition at 5 µM: read-out: Inhibition of rCPB2.8 enzymatic activity
T1 construct: recombinant enzymes (r) lacking the C-terminal region
T1 sequence (P36400 126-343): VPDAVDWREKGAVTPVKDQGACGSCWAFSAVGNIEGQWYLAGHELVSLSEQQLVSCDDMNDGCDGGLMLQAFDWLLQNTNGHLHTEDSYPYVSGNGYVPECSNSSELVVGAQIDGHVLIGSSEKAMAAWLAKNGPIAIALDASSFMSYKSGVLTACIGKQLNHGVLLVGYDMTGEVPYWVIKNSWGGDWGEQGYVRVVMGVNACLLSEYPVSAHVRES
Procedure: The screening assays for the inhibitory activity of the compounds in the rCPB2.8, rCPB3, and rH84Y enzymes were performed using 100 mM sodium acetate buffer containing 5 mM EDTA, 100 mM NaCl, 0.01% Triton X-100, and 20% glycerol, at pH 5.5. Enzyme aliquots were pre-incubated with 5 mM DTT for 5 min at 37 °C. After checking the initial rate of the reaction corresponding to the control, the enzymatic rate was measured at two concentrations of compounds, 1 µM and 5 µM. Enzyme activity was monitored by hydrolysis of the substrate Z-FR-MCA by measuring the fluorescence at λEx = 360 nm and λEm = 480 nm on a Hitachi F2700 spectrofluorometer, obtaining the rate values in UAF/min (arbitrary fluorescence units by minute).

[2] = molecular target: T1, rCPB2.8; assay: Determination of IC50 on rCPB2.8 (Z-FR-AMC); format: biochemical
Procedure: Cysteine proteases rCPB2.8, rCPB3, and rH84Y were assayed in 100 mM sodium acetate buffer containing 5 mM EDTA, 100 mM NaCl, 0.01% Triton X-100, and 20% glycerol, at pH 5.5. The enzymes were pre-incubated in the presence of 5 mM DTT for 5 min at 37 °C in a 1 mL final volume with constant stirring. Enzyme activities were monitored using fluorogenic probe Z-FR-AMC (9.25 µM final concentration), and the fluorescence was monitored by spectrofluorometry using fluorometer F2700 (Hitachi, Tokyo, Japan) set to λEx = 360 nm and λEm = 480 nm. The IC50 evaluation was performed using a progressive increase in the concentration of the compounds; the IC50 values were calculated using nonlinear regression, and the data were analysed by Grafit 5.0.13 software using Equation (1). (1) y=100%/1+(x/IC50)^S.

[3] = system: Promastigote forms of L. amazonensis; assay: Antipromastigote assay (MTT); format: cell-based, Leishmania amazonensis; conditions: for IC50: Leishmania amazonensis, 72 h, read-out: Promastigote IC50; for SI (selectivity index): GL50 in NIH/3T3 cells / IC50 in extracellular promastigotes
Procedure: A standard strain of Leishmania (Leishmania amazonensis) (IFLA/BR/1967/PH8) was used for the evaluation of in vitro antileishmanial activity. The promastigote forms were grown in Schneider’s insect medium (Sigma-Aldrich®, SP/Brazil) supplemented with 20% foetal bovine serum (Sigma-Aldrich®, SP/Brazil), 10,000 U/mL penicillin, and 10 mg/mL streptomycin (Sigma-Aldrich®, SP/Brazil).
Promastigote forms of L. amazonensis in the log growth phase (10^e6 parasites/mL) were added to 96-well plates and incubated in sextuplicate with the test samples (0.25–10.0 µg/mL). The microplates were incubated at 26 °C for 72 h. Cell viability was assessed by adding 5 mg/mL of MTT ([3-(4,5-dimethylthiazol-2-yl)-2,5-diphenyltetrazolium bromide] (Sigma-Aldrich® SP/Brazil). Results were expressed as the half-maximal inhibitory concentration (IC50) calculated by a nonlinear dose–response regression curve using the statistical program GraphPad PRISM 5.0. Pentamidine (Sigma-Aldrich ® SP/Brazil; 0.25–10 µg/mL) was used as a positive control, and pure Schneider culture medium was used as a negative control.

[4] = system: NIH/3T3 fibroblasts; assay: Cytotoxicity on mammalian cells (sulphorhodamine B); format: cell-based; conditions: for NIH/3T3 Cells GL50: 48 h, concentration that inhibited cell growth by 50%
Procedure: The cytotoxic effect of the test samples was evaluated on NIH/3T3 fibroblasts, obtained from the Rio de Janeiro Cell Bank (Brazil). Cells were seeded in 96-well plates ([…]). After 24 h of fixation, cells were incubated for 48 h with test samples at 0.25–250 µg/mL, in triplicate. […] Doxorubicin (0.025–25 µg/mL was used as a positive control. Cells were fixed by adding 20% trichloroacetic acid and were subsequently stained with sulphorhodamine B (0.1%) diluted in acetic acid after 48 h of exposure. Absorbance values were read on the PT-READER microplate instrument (Thermoplate®), and growth percentages were calculated according to procedures in the literature. Cytotoxicity activity was expressed as the concentration of drug that inhibited cell growth by 50% (GL50), and growth was determined by nonlinear regression using Origin 6.0 software (OriginLab). The statistical significance was analysed using an unpaired Student’s t-test or a one-way analysis of variance. A p-value < 0.05 was considered statistically relevant. In addition, the SI was calculated using the ratio between cytotoxicity in NHI-3T3 cells (GL50) and activity in the parasite forms (IC50).

[5] = system: rH84Y; format: biochemical, Leishmania mexicana; conditions: ratio of IC50 values
[6] = molecular target: T1, rCPB2.8; assay: Enzyme kinetics and mechanism of inhibition of rCPB2.8; format: biochemical; on mechanism: key: NCPC: non-competitive inhibition with positive cooperativity; SLNC: simple linear non-competitive inhibition
Procedure: (§1) Studies of cysteine proteases rCPB2.8, rCPB3, and rH84Y inhibition kinetics were performed in different concentrations of Z-FR-AMC in the presence and absence of compounds using 100 mM sodium acetate buffer containing 5 mM EDTA, 100 mM NaCl, 0.01% Triton X-100, and 20% glycerol, at pH 5.5. Aliquots of the enzymes were pre-incubated with 5 mM DTT for 5 min at 37 °C. For every kinetic measurement, the compounds were pre-incubated with each enzyme for 10 min before adding the substrate. All kinetic assays were performed in duplicate. Inhibition constants were determined using different equations, depending on the inhibition mechanism. The assumed KM values of rCPB2.8, rCPB3, and rH84Y for Z-FR-AMC were 3.23 µM, 2.99 µM, and 2.80 µM, respectively. The data of the activity rate and substrate concentration generated rectangular hyperbolic profiles that were linearised using the Lineweaver–Burk double-reciprocal plot. The replot profiles of the slope vs. inhibitor and intercept vs. inhibitor provided Ki and αKi parameters, respectively. If the replots present a parabolic profile, the system involves the participation of a second molecule of the compound, which can bind the enzyme complexed to the first compound (EI), forming IEI, and bind to the ESI complex, forming IESI. Linearisation is required, generating the 1/Kslope vs. inhibitor and 1/Kintercept vs. inhibitor replots, according to Equations (2) and (3). (2) 1/Kslope=1/Ki+[I]/βKi2, (3) 1/Kintercept=1/αKi+[I]/αγKi2, where Ki is the inhibitory constant, [I] is the concentration of inhibitor, α is the factor of formation of the ESI complex (enzyme–substrate–inhibitor complex), β is the factor of formation of the IEI complex (inhibitor–enzyme–inhibitor complex), and γ is the factor of formation of the IESI complex (inhibitor–enzyme–substrate–inhibitor complex) according to the general mechanism (Figure 8). Furthermore, β and γ measure the cooperativity between the binding of the first and second inhibitor molecules to form IEI and IESI, respectively.

[7] = molecular target: rCPB3 (Leishmania mexicana, UniProt P36400, D186N/D189S/N185D, form not given); assay: Enzyme kinetics and mechanism of inhibition of rCPB3; format: biochemical; on mechanism: key: NCPC: non-competitive inhibition with positive cooperativity; SLNC: simple linear non-competitive inhibition
Chain of rCPB3 (P36400 126-343 D186N/D189S/N185D): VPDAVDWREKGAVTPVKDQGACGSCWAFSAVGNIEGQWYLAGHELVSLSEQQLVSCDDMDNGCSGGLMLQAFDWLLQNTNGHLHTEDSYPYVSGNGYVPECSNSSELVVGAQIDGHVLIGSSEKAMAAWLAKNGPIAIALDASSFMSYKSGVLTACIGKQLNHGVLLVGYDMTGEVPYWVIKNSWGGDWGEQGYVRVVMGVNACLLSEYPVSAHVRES
Procedure: as §1

[8] = molecular target: rH84Y (Leishmania mexicana, UniProt P36400, D186N/D189S/H209Y/N185D, form not given); assay: Enzyme kinetics and mechanism of inhibition of rH84Y; format: biochemical; on mechanism: key: NCPC: non-competitive inhibition with positive cooperativity; SLNC: simple linear non-competitive inhibition
Chain of rH84Y (Leishmania mexicana, UniProt P36400, D186N/D189S/H209Y/N185D, form not given) (P36400 126-343 D186N/D189S/H209Y/N185D): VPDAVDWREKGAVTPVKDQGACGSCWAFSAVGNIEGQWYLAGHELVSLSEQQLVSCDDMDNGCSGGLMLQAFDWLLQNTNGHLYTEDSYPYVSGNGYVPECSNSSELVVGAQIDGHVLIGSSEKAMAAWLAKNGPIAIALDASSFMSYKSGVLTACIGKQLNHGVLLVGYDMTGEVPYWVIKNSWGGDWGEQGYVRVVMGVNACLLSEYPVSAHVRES
Procedure: as §1

[9] = L. amazonensis promastigotes, 26 °C, MTT, highest concentration tested 10 µg/mL
[10] = factor of formation of the ESI complex

For `COc1ccc(/C=C/C(=O)c2ccc(Cl)cc2)cc1` [Compound 1a, (E)-1-(4-chlorophenyl)-3-(4-methoxyphenyl)prop-2-en-1-one], the inhibition at 1 µM [1] was 82%, the IC50 [2] was 13.7 ± 0.74 µM and the IC50 [3] was over 10 µg/mL. The “NIH/3T3 Cells GL50” value [4] was 294.13 µM.
For `CN(C)c1ccc(/C=C/C(=O)c2ccc(Cl)cc2)cc1` [Compound 1c, (E)-1-(4-chlorophenyl)-3-(4-(dimethylamino)phenyl)prop-2-en-1-one], the inhibition at 5 µM [1] was 91.6%, the IC50 [2] was 2.75 ± 0.18 µM and the “SI (selectivity index)” value [3] was over 767.39. The IC50 [3, 9] was 1140 nM and the “NIH/3T3 Cells GL50” value [4] was over 874.83 µM.
`CN(C)c1ccc(/C=C/C(=O)c2ccccc2O)cc1` [Compound 2c, (E)-3-(4-(dimethylamino)phenyl)-1-(2-hydroxyphenyl)prop-2-en-1-one] was tested, and the “rCPB2.8 activity (increased to)” value ([1]; 1 µM compound, activity relative to control) was 141.71%, the inhibition at 5 µM [1] was 25.6% and the IC50 [2] was 11.7 ± 0.38 µM. The IC50 [3] was over 10 µg/mL and the “NIH/3T3 Cells GL50” value [4] was over 935.21 µM.
In the case of `CN(C)c1ccc(/C=C/C(=O)c2cc(F)ccc2O)cc1` [Compound 4c, (E)-3-(4-(dimethylamino)phenyl)-1-(5-fluoro-2-hydroxyphenyl)prop-2-en-1-one], the IC50 [2] is reported as 9.88 ± 0.73 µM, the “Times more potent in inhibiting rH84Y compared to rCPB3” value [5] is reported as 8.74 times and the “SI (selectivity index)” value [3] is reported as over 1752.48. For the same compound, the IC50 [3, 9] was 500 nM, the “NIH/3T3 Cells GL50” value [4] was over 876.24 µM and the “Cytotoxicity against mammal cells (in words)” value ([4]; NIH/3T3 cells) was “noncytotoxic”.
With `O=c1c(O)c(-c2ccc3c(c2)OCO3)oc2ccccc12` [Compound f12b, 2-(benzo[d][1, 3]dioxol-5-yl)-3-hydroxy-4H-chromen-4-one] the inhibition at 1 µM [1] was 69.2%, the inhibition at 5 µM [1] was 77.5% and the IC50 [2] was 5.23 ± 0.32 µM. For the same compound, the Mechanism [6] was “NCPC”, the αKi [6] was 24.9 ± 2.3 µM and the Ki ([6]; Ki) was 39200 ± 4100 nM. The α [6, 10] was 0.634, the β ([6]; factor of formation of the IEI complex) was 0.029 and the γ ([6]; factor of formation of the IESI complex) was 0.013. The Ki ([6]; βKi) was 1170 ± 120 nM, the Ki ([6]; γKi) was 510 ± 90 nM and the Mechanism [7] was “SLNC”. The αKi [7] was 13.7 ± 1.2 µM, the α [7, 10] was 1 and the Mechanism [8] was “SLNC”. It also gave a αKi [8] of 6.06 ± 0.24 µM, a α [8, 10] of 1 and an IC50 [3, 9] of over 10 µg/mL. The “NIH/3T3 Cells GL50” value [4] was over 885.74 µM.
